According to US20130281397A1, “TREATMENT OF DISEASES BY EPIGENETIC REGULATION” (RVX Therapeutics Inc., priority 2012, published 2013):
Values belong to the compound of their own block, whether it stands above or below them.

How the values were obtained:
Brd4 bromodomain 1 = target: T1, Brd4 bromodomain 1 (Homo sapiens, UniProt O60885); experiment: Inhibition of binding of tetra-acetylated histone H4 and Brd4 bromodomain 1 by TR-FRET; settings: His-tagged bromodomain 200 nM, biotinylated tetra-acetylated histone H4 peptide 25-50 nM, 2 hours at room temperature
T1 construct: made in house; host or cells: E. coli BL21(DE3)

Human AML MV-4-11 cells = experiment: Inhibition of cell proliferation in human AML MV-4-11 cells; type: cell-based; set-up: key: Active: Compounds with an IC50 value less than 30 uM were deemed to be active; settings: 72 hours, CellTiter Aqueous One Solution, 30 uM to 0.2 μM
Method: MV4-11 cells: 96-well plates were seeded with 5×10^4 cells per well of exponentially growing human AML MV-4-11 (CRL-9591) cells and immediately treated with two-fold dilutions of test compounds, ranging from 30 uM to 0.2 μM. Triplicate wells were used for each concentration, as well as a media only and three DMSO control wells. The cells and compounds were incubated at 37° C., 5% CO2 for 72 hours before adding 20 μL of the CellTiter Aqueous One Solution (Promega) to each well and incubating at 37° C., 5% CO2 for an additional 3-4 hours. The absorbance was taken at 490 nm in a spectrophotometer and the percentage of proliferation relative to DMSO-treated cells was calculated after correction from the blank well. IC50 were calculated using the GraphPad Prism software.

c-myc = experiment: Inhibition of c-myc expression (mRNA, real-time PCR) in MV4-11 cells; type: cell-based, Human; set-up: key: Active: Compounds with an IC50 value less than 30 μM were deemed to be active; settings: 3 hours at 37° C., duplex with cyclophilin
Method: MV4-11 cells (2.5×10^4 cells) were plated in 96 well U-bottom plates with test compound or DMSO (0.1%), and incubated for 3 hours at 37° C. Cells were then harvested by centrifugation, lysed, and mRNA was isolated using the mRNA catcher plus kit (Invitrogen). Reverse transcription of the mRNA and duplex amplification of the c-myc and cyclophilin cDNAs were performed using the RNA Ultrasense kit (Invitrogen) and a ViiA7 real-time PCR machine (Applied Biosystems). IC50 values were determined from a dose response curve.

SMILES: COc1cc(OC)c2c(=O)n(C)c(-c3cc(C)c(O)c(C)c3)cc2c1 [Example 4, 3-(4-hydroxy-3,5-dimethylphenyl)-6,8-dimethoxy-2-methylisoquinolin-1(2H)-one]
FRET activity (<50 uM) (Brd4 bromodomain 1): Active
cell proliferation activity (<30 uM) (Human AML MV-4-11 cells): Active
c-myc activity (<30 uM) (c-myc): Active
melting point: 253 to 254 °C

SMILES: COc1cc(OC)c2c(=O)[nH]c(-c3cc(C)c(OCCO)c(C)c3)nc2c1 [Example 16, 2-(4-(2-hydroxyethoxy)-3,5-dimethylphenyl)-5,7-dimethoxyquinazolin-4(3H)-one]
FRET activity (<50 uM) (Brd4 bromodomain 1): Active
c-myc activity (<30 uM) (c-myc): Active

SMILES: COc1cc(OC)c2c(=O)[nH]c(-c3ccc(N4CCN(C)CC4)cc3)nc2c1 [Example 38, 5,7-dimethoxy-2-(4-(4-methylpiperazin-1-yl)phenyl)quinazolin-4(3H)-one]
FRET activity (<50 uM) (Brd4 bromodomain 1): Active
cell proliferation activity (<30 uM) (Human AML MV-4-11 cells): Active
c-myc activity (<30 uM) (c-myc): Active

SMILES: COc1cc(OC)c2c(=O)[nH]c(-c3cc(C)c(OCCN4CCCC4)c(C)c3)nc2c1 [Example 67, 2-(3,5-dimethyl-4-(2-(pyrrolidin-1-yl)ethoxy)phenyl)-5,7-dimethoxyquinazolin-4(3H)-one]
cell proliferation activity (<30 uM) (Human AML MV-4-11 cells): Active
c-myc activity (<30 uM) (c-myc): Active

SMILES: Cc1cc(-c2cc3nc(OC(C)C)cc(OC(C)C)c3c(=O)[nH]2)cc(C)c1O [Example 69, 7-(4-hydroxy-3,5-dimethylphenyl)-2,4-diisopropoxy-1,6-naphthyridin-5(6H)-one]
FRET activity (<50 uM) (Brd4 bromodomain 1): Active
melting point: 206 to 208 °C

SMILES: COc1cc(OC)c2c(=O)[nH]c(-c3ccc(O)c(CCO)c3)nc2c1 [Example 70, 2-(4-hydroxy-3-(2-hydroxyethyl)phenyl)-5,7-dimethoxyquinazolin-4(3H)-one]
FRET activity (<50 uM) (Brd4 bromodomain 1): Active
melting point: 249 to 250.3 °C

SMILES: COc1cc(OC)c2c(=O)[nH]c(-c3ccc(N(CCO)CCO)cc3)nc2n1 [Example 72, 2-(4-(bis(2-hydroxyethyl)amino)phenyl)-5,7-dimethoxy-pyrido[2,3-d]pyrimidin-4(3H)one]
FRET activity (<50 uM) (Brd4 bromodomain 1): Active
melting point: 277 to 279 °C

SMILES: COCCOc1c(C)cc(-c2nc3cc(OC)cc(OC)c3c(=O)[nH]2)cc1C [Example 73, 5,7-dimethoxy-2-(4-(2-methoxyethoxy)-3,5-dimethylphenyl)quinazolin-4(3H)-one]
FRET activity (<50 uM) (Brd4 bromodomain 1): Active
melting point: 201 to 202 °C

SMILES: COc1cc(OC)c2c(=O)[nH]c(-c3cc(C)c(OCCNS(C)(=O)=O)c(C)c3)nc2c1 [Example 96, N-(2-(4-(5,7-dimethoxy-4-oxo-3,4-dihydroquinazolin-2-yl)-2,6-dimethylphenoxy)ethyl)methanesulfonamide]
FRET activity (<50 uM) (Brd4 bromodomain 1): Active
cell proliferation activity (<30 uM) (Human AML MV-4-11 cells): Active
c-myc activity (<30 uM) (c-myc): Inactive

SMILES: COc1cc(OC)c2c(=O)[nH]c(-c3ccc(OCC(=O)O)c(OC)c3)nc2c1 [Example 97, 2-(4-(5,7-dimethoxy-4-oxo-3,4-dihydroquinazolin-2-yl)-2-methoxyphenoxy)acetic acid]
FRET activity (<50 uM) (Brd4 bromodomain 1): Active
melting point: 275 to 277 °C

Continued, in another order:

FRET activity (<50 uM) (Brd4 bromodomain 1): Active
SMILES: COc1cc(OC)c2c(=O)[nH]c(-c3cc(C)c(O)c(C)c3)nc2c1 [Example 10, 2-(4-hydroxy-3,5-dimethylphenyl)-5,7-dimethoxyquinazolin-4(3H)-one]
cell proliferation activity (<30 uM) (Human AML MV-4-11 cells): Active
c-myc activity (<30 uM) (c-myc): Active

FRET activity (<50 uM) (Brd4 bromodomain 1): Active
SMILES: COc1cc(OC)c2c(=O)[nH]c(-c3cc(C)c(OCCN4CCOCC4)c(C)c3)nc2c1 [Example 17, 2-(3,5-dimethyl-4-(2-morpholinoethoxy)phenyl)-5,7-dimethoxyquinazolin-4(3H)-one]
cell proliferation activity (<30 uM) (Human AML MV-4-11 cells): Active

FRET activity (<50 uM) (Brd4 bromodomain 1): Active
melting point: 158 to 161 °C
SMILES: COc1cc2cc(-c3cc(C)c(O)c(C)c3)[nH]c(=O)c2c(OC)c1CN1CCOCC1 [Example 46, 3-(4-hydroxy-3,5-dimethylphenyl)-6,8-dimethoxy-7-(morpholinomethyl)isoquinolin-1(2H)-one]
cell proliferation activity (<30 uM) (Human AML MV-4-11 cells): Active
c-myc activity (<30 uM) (c-myc): Active

FRET activity (<50 uM) (Brd4 bromodomain 1): Active
SMILES: Cc1cc(-c2nc3ccc(CN4CCOCC4)cc3c(=O)[nH]2)cc(C)c1O [Example 57, 2-(4-hydroxy-3,5-dimethylphenyl)-6-(morpholinomethyl)quinazolin-4(3H)-one]
cell proliferation activity (<30 uM) (Human AML MV-4-11 cells): Active
c-myc activity (<30 uM) (c-myc): Active

FRET activity (<50 uM) (Brd4 bromodomain 1): Active
melting point: 270 to 272 °C
SMILES: COc1cc(OC)c2c(=O)[nH]c(-c3cc(C)c(OCC(=O)O)c(C)c3)nc2c1 [Example 59, 2-(4-(5,7-dimethoxy-4-oxo-3,4-dihydroquinazolin-2-yl)-2,6-dimethylphenoxy)acetic acid]
c-myc activity (<30 uM) (c-myc): Inactive

FRET activity (<50 uM) (Brd4 bromodomain 1): Inactive
melting point: > 300 °C
SMILES: CC(=O)Nc1ccc2nc(-c3cc(C)c(OCCO)c(C)c3)[nH]c(=O)c2c1 [Example 68, N-(2-(4-(2-hydroxyethoxy)-3,5-dimethylphenyl)-4-oxo-3,4-dihydroquinazolin-6-yl)acetamide]

FRET activity (<50 uM) (Brd4 bromodomain 1): Inactive
melting point: 259.6 to 261.2 °C
SMILES: Cc1cc(C)c2c(=O)[nH]c(-c3cc(C)c(OCCO)c(C)c3)nc2c1 [Example 71, 2-(4-(2-hydroxyethoxy)-3,5-dimethylphenyl)-5,7-dimethylquinazolin-4(3H)-one]

FRET activity (<50 uM) (Brd4 bromodomain 1): Active
melting point: 260.8 to 262.6 °C
SMILES: Cc1cc(-c2nc3cc(Cl)cc(Cl)c3c(=O)[nH]2)cc(C)c1OCCO [Example 74, 5,7-dichloro-2-(4-(2-hydroxyethoxy)-3,5-dimethylphenyl)quinazolin-4(3H)-one]

FRET activity (<50 uM) (Brd4 bromodomain 1): Active
melting point: 237 to 239.1 °C
SMILES: COc1cc2nc(-c3cc(C)c(O)c(C)c3)[nH]c(=O)c2c(OC)c1CN1CCOCC1 [Example 75, 2-(4-hydroxy-3,5-dimethylphenyl)-5,7-dimethoxy-6-(morpholinomethyl)quinazolin-4(3H)-one]
cell proliferation activity (<30 uM) (Human AML MV-4-11 cells): Active
c-myc activity (<30 uM) (c-myc): Active

FRET activity (<50 uM) (Brd4 bromodomain 1): Inactive
melting point: 291.3 to 293 °C
SMILES: COc1cc(O)c2c(=O)[nH]c(-c3cc(C)c(O)c(C)c3)nc2c1 [Example 98, 5-hydroxy-2-(4-hydroxy-3,5-dimethylphenyl)-7-methoxyquinazolin-4(3H)-one]
